Key:
Assay type in all cases: biochemical
E. coli RNA polymerase = target: T1, E. coli RNA polymerase (Escherichia coli, UniProt P0A8V2); experiment: In vitro plate-based transcription assay, inhibition of RNA polymerase activity (radiometric); settings: FIG. 10; 12.5 μM each rNTP, 2.5 mM Mg2+, 0.1 Unit RNA polymerase; read-out: IC50 value for inhibition of the in vitro transcription reaction
T1 construct: purchased Epicentre Biotechnologies S90250
Method: Synthetic DNA primers and a biotinylated oligo (dT) may be obtained from the Keck Foundation Biotechnology Resource Center at Yale University. Flavin mononucleotide (FMN) may be purchased from Fluka BioChemika (catalog #83810). [α-^33P] labeled Adenosine 5′ triphosphate was acquired from American Radiolabeled Chemicals, Inc. (catalog #ARP0131). In vitro plate-based transcription assay: In vitro transcription reactions are carried out at 25° C. in a total reaction volume of 50 μL. […] 50 μl of Microscint™PS (PerkinElmer, catalog #6013631) are then added to wells and the plate is read in a TopCount®NXT™ microplate scintillation and luminescence counter (PerkinElmer). Other readers and counters may be also be used.
The antibacterial rifampin is an RNA polymerase inhibitor (Liu, J., Feldman, P. A., Lippy, J. S., Bobkova, K., Kurilla, M. G, and Chung, T. D. Y., 2001 Analytical Biochemistry, 289, 239-245, Fujii, K., Saito, H., Tomioka, H., Mae, and T., Hosoe, K., 1995 Antimicrobial Agents and Chemotherapy, 39, 1489-1492, Morris, A. B., Brown, R. B., and Sands, M., 1993 Antimicrobial Agents and Chemotherapy 37, 1-7). Rifampin is titrated to inhibit in vitro transcription reaction and its inhibitory IC50 value is determined (FIG. 10). […]

[1] = test system: TPP riboswitch (B. subtilis tenA operon); experiment: TPP riboswitch-mediated in vitro transcription termination assay, RiboGreen fluorescence detection; settings: FIG. 15; RNA binding fluorophore (RiboGreen) detection, 5 μM each rNTP, 2 mM Mg2+, 3-hour reaction
Method: In vitro plate-based transcription assay: In vitro transcription reactions are carried out at 25° C. in a total reaction volume of 50 μL. Reactions are performed in Reacti-Bind™ Streptavidin High Binding Capacity Coated 96-Well Plates (Pierce, catalog #15502) in assay buffer at a final concentration of 20 mM HEPES at pH 8.0, 60 mM KCl, 0.1 mM EDTA, and 0.005% BSA. To prepare plates, wells are washed three times with successive addition and aspiration of wash buffer containing 25 mM Tris-HCl at pH 7.4 and 150 mM NaCl. Each well is then given assay buffer, followed by addition of FMN into control wells or DMSO into test wells. Enzyme mixture containing sigma-saturated E. coli polymerase (Epicentre Biotechnologies, catolog #S90250) was then added to all wells. The reaction was initiated by the addition of a start mix containing ribonucleotides (Promega, Catalog #P1300), biotinylated oligo (dT)25, magnesium, [α-^33P]-labeled ATP and DNA sequence. […] 50 μl of Microscint™PS (PerkinElmer, catalog #6013631) are then added to wells and the plate is read in a TopCount®NXT™ microplate scintillation and luminescence counter (PerkinElmer). […]

[2] = test system: FMN riboswitch (B. subtilis ribDEAHT operon); experiment: FMN riboswitch-mediated in vitro transcription termination assay, [α-33P]-ATP radiometric detection
Method: The FMN riboswitch within the leader sequence of the B. subtilis ribDEAHT operon was amplified by PCR from B. subtilis strain 168 (Bacillus Genetic Stock Center—designation 1A1). PCR of a B. subtilis genomic preparation is performed using Platinum® Taq DNA Polymerase High Fidelity from Invitrogen (catalog #11304-011) and the sense PCR and the antisense polyA PCR primers (SEQ ID: NO 1 and 2, or SEQ ID: NO 1 and 3, respectively, as shown in table below). […] These overhangs allow the ligation of DNA into the pCR®2.1-TOPO® vector using a TOPO TA Cloning® kit (Invitrogen catalog #K4500-01). Following transformation, colonies that contained disrupted β-galactosidase are picked and grown overnight. Correct insertion and orientation of PCR product are verified by restriction analysis and sequencing. PCR of the resulting clone is used to generate DNA sequences for use in in vitro transcription termination assays. […]
Synthetic DNA primers and a biotinylated oligo (dT) may be obtained from the Keck Foundation Biotechnology Resource Center at Yale University. […] 50 μl of Microscint™PS (PerkinElmer, catalog #6013631) are then added to wells and the plate is read in a TopCount®NXT™ microplate scintillation and luminescence counter (PerkinElmer). Other readers and counters may be also be used. […]

[3] = test system: FMN riboswitch (B. subtilis ribDEAHT operon); experiment: FMN riboswitch-mediated in vitro transcription termination assay, RiboGreen fluorescence detection; settings: FIG. 14; RNA binding fluorophore (RiboGreen) detection, 10 μM each rNTP, 3 mM Mg2+, 4-hour reaction

T1 sequence (P0A8V2 whole entry): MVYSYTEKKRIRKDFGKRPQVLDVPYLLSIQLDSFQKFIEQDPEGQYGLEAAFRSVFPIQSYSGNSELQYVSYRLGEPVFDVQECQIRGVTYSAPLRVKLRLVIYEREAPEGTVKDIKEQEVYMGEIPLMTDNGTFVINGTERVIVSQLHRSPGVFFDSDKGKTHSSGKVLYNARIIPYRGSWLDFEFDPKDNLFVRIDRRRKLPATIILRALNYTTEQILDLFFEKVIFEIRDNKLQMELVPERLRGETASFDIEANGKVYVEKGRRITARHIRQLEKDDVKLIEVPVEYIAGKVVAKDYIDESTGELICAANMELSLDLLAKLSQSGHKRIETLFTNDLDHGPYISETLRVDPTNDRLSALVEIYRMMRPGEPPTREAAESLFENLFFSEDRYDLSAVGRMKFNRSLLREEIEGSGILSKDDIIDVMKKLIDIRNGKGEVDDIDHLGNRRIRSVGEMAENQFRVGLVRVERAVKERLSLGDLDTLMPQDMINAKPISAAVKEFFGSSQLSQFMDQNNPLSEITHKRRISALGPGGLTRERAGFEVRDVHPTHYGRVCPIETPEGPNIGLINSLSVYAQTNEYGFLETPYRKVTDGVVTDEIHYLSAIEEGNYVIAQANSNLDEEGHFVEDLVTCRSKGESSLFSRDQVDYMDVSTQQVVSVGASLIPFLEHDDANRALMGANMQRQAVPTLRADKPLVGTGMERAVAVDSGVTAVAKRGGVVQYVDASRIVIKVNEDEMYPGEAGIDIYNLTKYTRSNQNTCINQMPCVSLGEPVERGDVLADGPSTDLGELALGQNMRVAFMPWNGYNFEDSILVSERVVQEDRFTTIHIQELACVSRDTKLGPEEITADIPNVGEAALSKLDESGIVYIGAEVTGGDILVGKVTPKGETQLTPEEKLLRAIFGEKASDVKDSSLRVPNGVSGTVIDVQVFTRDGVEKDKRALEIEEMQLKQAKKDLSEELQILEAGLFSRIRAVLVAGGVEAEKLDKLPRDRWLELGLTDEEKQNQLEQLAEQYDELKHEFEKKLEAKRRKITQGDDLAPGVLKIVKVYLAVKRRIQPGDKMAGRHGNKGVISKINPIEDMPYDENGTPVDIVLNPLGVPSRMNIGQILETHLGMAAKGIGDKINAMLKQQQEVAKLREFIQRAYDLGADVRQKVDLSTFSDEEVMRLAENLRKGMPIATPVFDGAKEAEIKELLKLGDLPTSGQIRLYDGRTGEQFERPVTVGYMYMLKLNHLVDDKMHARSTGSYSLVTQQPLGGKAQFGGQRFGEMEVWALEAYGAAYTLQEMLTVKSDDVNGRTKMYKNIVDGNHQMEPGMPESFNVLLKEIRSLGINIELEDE
T1 sequence (P0A8T7 whole entry partner): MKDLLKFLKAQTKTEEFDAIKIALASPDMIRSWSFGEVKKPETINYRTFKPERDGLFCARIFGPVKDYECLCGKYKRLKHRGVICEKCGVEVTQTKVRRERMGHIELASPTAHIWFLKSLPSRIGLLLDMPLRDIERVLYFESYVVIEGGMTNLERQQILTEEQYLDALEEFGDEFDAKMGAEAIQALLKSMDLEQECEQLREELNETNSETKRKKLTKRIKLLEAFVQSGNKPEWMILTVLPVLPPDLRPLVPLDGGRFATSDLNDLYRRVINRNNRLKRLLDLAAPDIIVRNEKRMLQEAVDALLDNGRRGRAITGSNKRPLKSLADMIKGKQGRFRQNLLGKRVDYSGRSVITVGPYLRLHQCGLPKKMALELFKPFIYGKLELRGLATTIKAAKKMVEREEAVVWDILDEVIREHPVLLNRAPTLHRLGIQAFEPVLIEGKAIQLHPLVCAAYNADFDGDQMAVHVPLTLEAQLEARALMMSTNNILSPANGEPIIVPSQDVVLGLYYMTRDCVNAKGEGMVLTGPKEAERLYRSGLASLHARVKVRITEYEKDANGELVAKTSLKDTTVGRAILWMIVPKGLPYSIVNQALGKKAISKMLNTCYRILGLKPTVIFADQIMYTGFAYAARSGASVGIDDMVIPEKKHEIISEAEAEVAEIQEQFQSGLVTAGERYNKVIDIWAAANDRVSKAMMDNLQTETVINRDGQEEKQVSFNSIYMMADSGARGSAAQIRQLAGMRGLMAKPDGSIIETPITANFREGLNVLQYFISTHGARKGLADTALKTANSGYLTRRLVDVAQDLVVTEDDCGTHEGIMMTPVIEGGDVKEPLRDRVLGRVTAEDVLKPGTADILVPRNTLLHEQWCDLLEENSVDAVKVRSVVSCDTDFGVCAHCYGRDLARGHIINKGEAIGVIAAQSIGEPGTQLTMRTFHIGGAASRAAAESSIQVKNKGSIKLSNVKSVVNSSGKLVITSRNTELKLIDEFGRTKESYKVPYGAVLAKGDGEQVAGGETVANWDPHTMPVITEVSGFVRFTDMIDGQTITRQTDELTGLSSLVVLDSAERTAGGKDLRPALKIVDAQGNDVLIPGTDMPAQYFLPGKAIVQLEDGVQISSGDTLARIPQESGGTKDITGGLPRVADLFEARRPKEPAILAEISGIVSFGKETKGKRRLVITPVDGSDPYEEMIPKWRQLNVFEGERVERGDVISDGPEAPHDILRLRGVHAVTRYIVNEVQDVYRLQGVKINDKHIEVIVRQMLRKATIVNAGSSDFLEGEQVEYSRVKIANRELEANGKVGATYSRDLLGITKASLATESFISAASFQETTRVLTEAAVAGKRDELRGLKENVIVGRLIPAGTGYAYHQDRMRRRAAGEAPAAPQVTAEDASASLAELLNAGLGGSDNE
T1 sequence (P0A7Z4 whole entry partner): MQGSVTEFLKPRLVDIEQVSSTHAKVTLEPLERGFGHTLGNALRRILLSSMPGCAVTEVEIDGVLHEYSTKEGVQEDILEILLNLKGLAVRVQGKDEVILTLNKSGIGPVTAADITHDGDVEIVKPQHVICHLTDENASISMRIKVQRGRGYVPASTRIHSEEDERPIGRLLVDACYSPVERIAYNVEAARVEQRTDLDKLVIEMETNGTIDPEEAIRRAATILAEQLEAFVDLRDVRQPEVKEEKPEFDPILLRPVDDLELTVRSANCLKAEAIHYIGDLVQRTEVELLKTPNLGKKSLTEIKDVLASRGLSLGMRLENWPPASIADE
T1 sequence (P0A800 2-91 partner limits assumed): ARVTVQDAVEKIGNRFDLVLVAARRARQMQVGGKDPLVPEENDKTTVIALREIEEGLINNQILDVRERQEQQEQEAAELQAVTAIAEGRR
T1 sequence (P00579 whole entry partner): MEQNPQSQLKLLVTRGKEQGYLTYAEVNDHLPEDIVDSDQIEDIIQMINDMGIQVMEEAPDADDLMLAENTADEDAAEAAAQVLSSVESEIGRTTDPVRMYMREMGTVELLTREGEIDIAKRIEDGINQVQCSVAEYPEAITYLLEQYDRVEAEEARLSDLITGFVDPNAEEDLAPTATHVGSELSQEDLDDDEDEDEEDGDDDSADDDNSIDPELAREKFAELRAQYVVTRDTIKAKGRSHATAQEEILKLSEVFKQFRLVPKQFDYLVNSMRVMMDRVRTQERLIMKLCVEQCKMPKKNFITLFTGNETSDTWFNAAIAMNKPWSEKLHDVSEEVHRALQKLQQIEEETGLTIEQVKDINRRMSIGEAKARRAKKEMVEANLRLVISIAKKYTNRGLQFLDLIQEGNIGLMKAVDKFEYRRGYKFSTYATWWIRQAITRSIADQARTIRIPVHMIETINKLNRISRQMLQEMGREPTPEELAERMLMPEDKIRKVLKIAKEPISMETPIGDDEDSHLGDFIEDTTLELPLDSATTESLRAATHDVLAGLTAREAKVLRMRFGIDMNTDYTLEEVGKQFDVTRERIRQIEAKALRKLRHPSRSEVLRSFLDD

CO[C@H]1/C=C/O[C@@]2(C)Oc3c(C)c(O)c4c(O)c(c(/C=N/N5CCN(C)CC5)c(O)c4c3C2=O)NC(=O)/C(C)=C\C=C\[C@H](C)[C@H](O)[C@@H](C)[C@@H](O)[C@@H](C)[C@H](OC(C)=O)[C@@H]1C [rifampin]
IC50 (E. coli RNA polymerase): 8.2 nM

Cc1ncc(C[n+]2csc(CCOP(=O)(O)O)c2C)c(N)n1 [TMP, Thiamine monophosphate]
IC50 [1]: > 25000 nM

Cc1ncc(C[n+]2csc(CCO[P@](=O)(O)OP(=O)(O)O)c2C)c(N)n1 [TPP, Thiamine pyrophosphate]
IC50 [1]: 170 nM

Cc1cc2nc3c(=O)[nH]c(=O)nc-3n(C[C@H](O)[C@H](O)[C@H](O)COP(=O)(O)O)c2cc1C [FMN, Flavin mononucleotide]
Signal (cpm) of captured polyA full-length transcript ([2]; FIG. 5A, 100 μM FMN versus no FMN, DNA sequence encoding a polyA sequence): significant decrease in signal
IC50 ([2]; FIG. 11, 12.5 μM each rNTP, 2.5 mM Mg2+, 0.1 Unit RNA polymerase, radiolabel detection): 45 nM
IC50 [3]: 116 nM

Cc1cc2nc3c(=O)[nH]c(=O)nc-3n(C[C@H](O)[C@H](O)[C@H](O)CO)c2cc1N(C)C [roseoflavine, roseoflavin]
IC50 [3]: > 100000 nM

From patent US20120135417A1, “METHODS FOR SCREENING AND IDENTIFYING COMPOUNDS” (priority 2009, published 2012)
